Test results from patent US11241501B2, “Anticancer prodrug for overcoming drug resistance” (Korea University Research and Business Foundation, priority 2018, dated 2022).

Legend:
[1] = test system: MCF7/Dox xenograft tumors; test: Independent comparative xenograft study of C1-C4; assay type: in vivo, mice; conditions: n=5 per group, FIG. 23C
From the text: Tumors are shown (right). […] C1 injection led to a 58% reduction in tumor growth, which was statistically greater than the reductions seen in the case of C2 (16%), C3 (9%), C4 (6%) and DMSO (0%) tested under otherwise identical conditions.

[2] = test system: HepG2 cells; test: Confocal intracellular localization with MitoTracker; assay type: cell-based, human; conditions: HepG2, 5 μM, 24 hr
Method: (§1) HepG2 cells treated with each compound (5 μM, 24 hr) were co-stained with the mitochondrial marker MitoTracker (green). Boxed regions show co-localization of the test compounds and probe within the mitochondria. […] Experiments were carried out in triplicate and the data shown represent means±SD. **p<0.01. […] HepG2 cells were incubated with BNPP (100 μM) for 2 hr prior to C1 treatment. **p<0.01. […] Cleaved caspase-3 and PARP-1 levels were examined to assess apoptosis induction. C, cleaved.
Cells were seeded on glass chamber slides (Nalgene Nunc) followed by probe treatment. After 48 h, the cells were fixed with 4% formaldehyde, and blocked with 2% bovine serum albumin-PBS for 30 min. The mitochondria were stained using MitoTracker™ Green FM (Invitrogen, USA) for 30 min. Fluorescent images were obtained using a confocal laser scanning microscope (Carl Zeiss MicroImaging, Inc., Germany).

[3] = test system: cancer cells (A549 and HepG2), normal cells (NHDF and IMR90); test: Cellular uptake of compounds in normal and cancer cells; assay type: cell-based, human; conditions: 5 μM, 6 h, A549, HepG2 vs NHDF
Method: Cells were treated with 5 μM of each compound for 6 h. Fluorescence intensities were determined using SpectraMAX 13;
(§2) To analyze the cellular fluorescence levels upon compound treatment, cells were seeded in plates 1 day before treatment with the compounds. Cells were then treated with each compound for the indicated dose or time course. After the experiment, cells were washed with ice-cold PBS, trypsinized, and centrifuged. The cell pellet was re-suspended in 300 μL of PBS and then analyzed using a multiplate reader (SpectraMAX I3x). The results were normalized according to the number of cells.

[4] = test system: MCF7 cells; test: Colony formation assay; assay type: cell-based, human; conditions: 10 days
Method: (§3) Cells were seeded in 24 well plates at 2×10^5 cells per well and were allowed to adhere for at least 24 h, growth medium was replaced with medium containing C1 or its analogues at the indicated concentrations and times, and cell viability was assessed via the WST-1 assay (Roche Diagnostics, Laval, QC, Canada). For the colony formation assay, cells were seeded in 6-well plates. After 24 h, cells were maintained in the presence of each probe or vehicle dimethyl sulfoxide (DMSO) for 10 days. Colonies were fixed with methanol for 10 min and stained with 0.05% crystal violet in 20% ethanol.

[5] = test system: HepG2 cells; test: WST cell viability assay; assay type: cell-based, human
Method: as §1, §3

[6] = test system: MCF7 and MCF7/Dox cells; test: Intracellular accumulation, fluorescence assay; assay type: cell-based, human; conditions: up to 12 hr after treatment
Method: (§4) Fluorescence intensities were measured with SpectraMAX 13. Data represent means±SD. **p<0.01. […] Data represent means±SD. **[…]. […] Data represent the mean±SD (n=3 experimental replicates). *p<0.05, **p<0.01. […] MCF7/Dox cells were treated with C1 or C3 as indicated, and the cytosolic (C) and mitochondrial (M) fractions were subjected to immunoblot assay. COX-IV and tubulin were used as markers for the mitochondria and cytosol fractions, respectively.
Mito-tracker (green) was utilized to show the mitochondria;
as §2

[7] = test system: p21^Waf1 and phosphorylated PDH levels; test: Immunoblot assay of p21Waf1 and phosphorylated PDH; assay type: cell-based, human
Method: as §1
(§5) Immunoblot analyses were performed using antibodies specific for phosphorylated serine 293 PDH-EI (ab92696), p21^Waf1 (sc-397), cleaved PARP (5625), cleaved caspase-3 (9664), COX-IV (4850), and Cytochrome c (4280). They were purchased from Abcam (Cambridge, UK), Santa Cruz Biotechnology (Texas, USA) or Cell Signaling Technology (Massachusetts, USA). Anti-tubulin antibodies were obtained from Sigma-Aldrich (St. Louis, USA). Briefly, cells were washed twice in ice-cold PBS and lysed in a radioimmunoprecipitation assay buffer containing 50 mM Tris/HCl (pH 7.5), 150 mM NaCl, 0.1% sodium dodecyl sulfate (SDS), 1% Triton X-100, 1% sodium deoxycholate, and protease inhibitor mixture. After sonification, the lysate was centrifuged, and the supernatant was recovered and loaded onto a 12% SDS-polyacrylamide gel for electrophoresis.

[8] = test system: MCF7/Dox cells; test: Cytochrome c release from mitochondria, immunoblot; assay type: cell-based, human
Method: as §4
as §5, with “electrophoresis. […]” for “electrophoresis.”

| Compound | reduction in tumor growth [1] | intracellular (mitochondrial) localization [2] | tumor cell selectivity of cellular uptake [3] | colony-forming ability [4] | IC50 ([5]; HepG2 cells, WST assay, read-out: IC50 (cytotoxicity)) | cell death in cell-survival assays ([5]; compared with C3-C6) | intracellular accumulation in MCF7/Dox versus MCF7 [6] | effect on p21^Waf1 and phosphorylated PDH levels [7] | cytochrome c release, cleavage of caspase-3 and PARP-1, decrease in cell viability [8] |
| --- | --- | --- | --- | --- | --- | --- | --- | --- | --- |
| C#CCC(OC(=O)N[C@H]1C[C@H](O[C@H]2C[C@](O)(C(=O)CO)Cc3c(O)c4c(c(O)c32)C(=O)c2c(OC)cccc2C4=O)O[C@@H](C)[C@H]1O)c1ccc(NC(=O)C(C)C)cc1 (stereo partly drawn) [C4] | 6% | no detectable mitochondrial localization | no cellular selectivity | – | – | – | – | – | – |
| C#CCC(OC(=O)N[C@H]1C[C@H](O[C@H]2C[C@](O)(C(=O)CO)Cc3c(O)c4c(c(O)c32)C(=O)c2c(OC)cccc2C4=O)O[C@@H](C)[C@H]1O)c1ccc(NC(=O)C(Cl)Cl)cc1 (stereo partly drawn) [C2] | 16% | no detectable mitochondrial localization | no cellular selectivity | showed this effect only in the case of the MCF7 cells | 10.6 ± 1.03 µM | greater cell death in a dose-dependent manner | substantially lower level in MCF7/Dox than in MCF7 | – | – |
| COc1cccc2c1C(=O)c1c(O)c3c(c(O)c1C2=O)C[C@@](O)(C(=O)CO)C[C@@H]3O[C@H]1C[C@H](NC(=O)OC(Cc2cn(CCCCCC[P+](c3ccccc3)(c3ccccc3)c3ccccc3)nn2)c2ccc(NC(=O)C(C)C)cc2)[C@H](O)[C@H](C)O1 (stereo partly drawn) [C3] | 9% | located predominantly within the mitochondria | taken up specifically by cancer cells | – | – | – | – | no effect on p21^Waf1 or PDH phosphorylation | fails to evoke these effects |
